Experimental data taken from patent US6653333B2, “Remedies or preventives for digestive diseases containing diaminotrifluoromethylpyridine derivatives” (Ishihara Sangyo Kaisha, Ltd., priority 2000, dated 2003).

Tests used:
[1] = test system: TNBS induced rat Crohn's disease model; test: Trinitrobenzene Sulfonic Acid (TNBS) induced rat Crohn's disease model; format: in vivo; details: TNBS rats
Protocol: The therapeutic effect of the compound 1 on TNBS induced rat Crohn's disease model was studied by the following method.
(1) SD male rats (12 weeks old) were anesthetized with Nembutal and their abdomen was opened up, a TNBS solution (TNBS 160 mg/ml ethanol) was administered in 1 ml/kg in the colon located 10 cm below the ileocecum, and their abdomen was closed to prepare models, which were divided into a non-treated group and a group treated with the compound 1, each group consisting of 6 rats. No such a treatment was carried out for normal group rats. After preparation of the models, a drug formulation of the compound 1 of Test Example 1 diluted with distilled water was perorally administered to rats of the group treated with the compound 1 once a day for 7 days in a dosage of 10 mg/kg/day as calculated as anhydride of the compound 1. After completion of administration period, visual change, small intestine weight and mucosal myeloperoxidase activity in small intestine (mucosal MPO activity) were observed or measured. The visual change was evaluated by digitizing and compiling various changes. The ratio of the small intestine weight to the body weight was also calculated from the small intestine weight and the body weight.

[2] = test system: rat sodium dextran sulfate (DSS) induced ulcerative colitis model; test: rat sodium dextran sulfate (DSS) induced ulcerative colitis model; format: in vivo; details: DSS rats
From the text: As an ulcerative colitis model, trinitrobenzenesulfonic acid (TNB) is usually used, but as a drug effect evaluation system to accomplish the present invention, a rat sodium dextran sulfate (DSS) induced ulcerative colitis model was used. It has been well known that said model is considered as an experimental model similar to human ulcerative colitis from many viewpoints such as inhibision of weight gain, presence or absence of bloody stool, symptoms of e.g. anemia and formation of erosion at the large intestine, and no formation of lesion in the small intestine [FOLIA PHARMACOLOGICA JAPONICA vol. 105, p. 145-152(1995)]. A therapeutic effect of N-(2-ethylsulfonylamino-5-trifluoromethyl-3-pyridyl)cyclohexanecarboxamide sodium salt monohydrate (hereinafter referred to as compound 1) over the test system was examined.
The compound 1 was used as a drug formulation. The formulation composition (content per one vial) was as follows.
A 3% aqueous solution of sodium dextran sulfate (DSS: manufactured by Wako Pure Chemical Industries, Ltd.) was put in a drinking bottle, and rats [Crj: CD(SD), male, Charles River Japan, 7 weeks old when subjected to the test] were made to drink the solution freely for 11 days to cause colitis. After eleven days, rats which satisfied selection standards (among rats which discharged bloody stool continuously for at least two days including the selection day, ones having a weight loss at the selection day of less than 20 g as compared with the weight on the previous day and having a hemoglobin concentration of at least 12 g/dl) were selected, and divided into groups (ten rats/group) so that there would be no difference in the average weight among groups.
With respect to a non-treated group and groups treated with the compound 1, the 3% aqueous solution was changed to a 1% DSS aqueous solution at the day of division, and the rats were made to drink the solution freely for 14 days. Further, to the rats in the groups treated with the compound 1, the compound 1 was perorally administered once a day for 14 days from the day of division by means of a peroral sonde (dosage: 10 ml/kg). To the rats in the non-treated group and a normal group, distilled water for injection (manufactured by Otsuka Pharmaceutical Co., Ltd.) alone was perorally administered similarly. Here, the normal group rats were made to drink distilled water for injection freely instead of the DSS aqueous solution from initiation of the test to the day of anatomy.
A 10 mg/ml aqueous solution of the compound 1 was prepared by using distilled water for injection (manufactured by Otsuka Pharmaceutical Co., Ltd.) and administered to the rats in a desired dosage.
Immediately after collection of blood, the large intestine (colon and rectum) was excised, and its length was measured by means of a ruler in a sufficiently relaxed state.
Immediately after the measurement, a fixing liquid was injected into the intestine, and the intestine was temporarily fixed for at least 1 hour in such a state that the lumen was approximately uniformly expanded. Then, the intestinal canal was dissected along the mesenterium adhered portion, and the intestine was completely fixed in an expanded state in a 10% neutral buffering formalin aqueous solution for at least one week. The intestine was washed with running water for about 5 minutes, and further washed with purified water three times, and then immersed in a 3% aqueous acetic acid solution for about 5 minutes as a pretreatment. Then, the intestine was immersed in a 1% Alcian blue (manufactured by Nacalai Tesque) (dissolved in a 3% aqueous acetic acid solution) and dyed for about 20 minutes, and then washed with a 3% aqueous acetic acid solution from 4 to 5 times until elution of Alcian blue disappeared. […]

`CCS(=O)(=O)Nc1ncc(C(F)(F)F)cc1NC(=O)C1CCCCC1.O.[Na]` [compound 1, N-(2-ethylsulfonylamino-5-trifluoromethyl-3-pyridyl)cyclohexanecarboxamide sodium salt monohydrate] was tested, and the “Inflammatory reaction and tissue impairment in the small intestine” value ([1]; 10 mg/kg/day perorally for 7 days) was “the inflammatory reaction and tissue impairment in the small intestine were decreased”, the “Ratio of small intestine to body weight (Mean)” value ([1]; 10 mg/kg/day perorally once a day for 7 days, non-treated 0.0065, normal 0.0030) was 0.0042 and the “Small intestine weight (Mean)” value ([1]; 10 mg/kg/day perorally once a day for 7 days, non-treated 2.18, normal 1.11) was 1.63. The “Visual score (Mean)” value ([1]; 10 mg/kg/day perorally once a day for 7 days, non-treated 7.8, normal 1.5) was 4.2, the “Mucosal MPO activity (Mean)” value ([1]; 10 mg/kg/day perorally once a day for 7 days, non-treated 8.93, normal 0.48) was 0.89 and the “Erosion suppression rate (large intestine erosion area vs non-treated group)” value ([2]; 1 mg/kg/day perorally once a day for 14 days) was 45%. The “Erosion suppression rate (large intestine erosion area vs non-treated group)” value ([2]; 10 mg/kg/day perorally once a day for 14 days) was 56%, the “Erosion suppression rate (large intestine erosion area vs non-treated group)” value ([2]; 100 mg/kg/day perorally once a day for 14 days) was 62% and the “Anemia as a result of melena due to the erosion” value ([2]; peroral 14 days) was “decreases anemia”. The “Histopathological study: inflammation at the submucosa in the erosion formed region” value ([2]; peroral 14 days) was “remarkable decrease of inflammation at the submucosa”, the “Histopathological study: mucosal tissue reconstruction” value ([2]; peroral 14 days) was “normal tissue reconstruction by regeneration of the mucosa took place” and the “Length of large intestine: intestine wall hyperplasia” value ([2]; peroral 14 days) was “decreases intestine wall hyperplasia”.
